The values below come from patent US10369138B2, “Monobactam organic compounds for the treatment of bacterial infections” (Novartis AG, priority 2014, dated 2019).

In brackets after ≈: the same amount, converted by molar mass.

The test system of one experiment is E. coli strain 25922. Briefly: MIC by broth microdilution, E. coli strain 25922. Particulars: Escherichia coli, 25922, E. coli strain 25922; read-out: Ec 25922 (MIC). It counts as cell-based. As to the method:
(§1) Bacterial isolates were cultivated from −70° C. frozen stocks by two consecutive overnight passages at 35° C. in ambient air on 5% blood agar (Remel, Lenexa, Kans.). Quality control and P. aeruginosa ATCC 27853) is from the American Type Culture Collection (ATCC; Rockville, Md.) and PAO1 was received from Dr. K. Poole.
Minimal Inhibitory Concentrations (MICs) were determined by the broth microdilution method in accordance with Clinical and Laboratories Institute (CLSI) guidelines. In brief, fresh overnight bacterial cultures were suspended in sterile saline, and adjusted to a 0.5 McFarland turbidity standard. Bacterial suspensions were then diluted in cation adjusted Mueller-Hinton Broth (MHB II; BBL) to yield a final inoculum of approximately 5×10^5 colony-forming units (CFU)/mL. A master plate of antibiotics was prepared at a concentration equivalent to hundred-fold the highest desired final concentration in 100% dimethyl sulfoxide (DMSO). The master antibiotic plate was then diluted by serial twofold dilution with a multichannel pipette. The resulting dilution series of compounds were diluted 1:10 with sterile water leading to a 10% DMSO final concentration. A volume of 10 μL of the drug dilution series was transferred to 96-well assay plates. Assay plates were inoculated with 90 μL of bacterial suspensions and incubated at 35-37° C. for 20 hrs. The assay plates were read using a microtiter plate reader (Molecular Devices) at 600 nm as well as by visual observation with a reading mirror. The lowest concentration of the compound that prevented visible growth was recorded as the MIC. Performance of the assay was monitored by testing aztreonam against laboratory quality control strains in accordance with guidelines of the CLSI.
On the technique in general: Dilution methods test growth across graded concentrations, often in twofold steps.

The test system of another experiment is E. coli containing KPC-2. In words: MIC by broth microdilution, E. coli containing KPC-2 (Ec KPC2 Iso). It counts as cell-based. Particulars: Escherichia coli, read-out: Ec KPC2 Iso (MIC), E. coli containing KPC-2 (carbapenemase from Klebsiella pneumoniae). As for the experimental part: as §1
Strain NB27273 (BW25113 pspB::Km^r) was obtained from the Keio transposon insertion collection. The strain has the pspB gene replaced by a kanamycin resistance marker (BW25113 pspB::Km^r). This strain was cured of the transposon in pspB via FLP recombinase using published methodology. The resulting strain, BW25113 pspB, was used as a host for multicopy vectors expressing key β-lactamases. Multicopy plasmids directing constitutive expression of β-lactamases were established as follows: Synthetic, codon optimized genes encoding E. coli KPC2 and SHV12 β-lactamases were made by DNA2.0 (Palo Alto, Calif.). Each of the synthetic fragments were designed to contain NotI and NcoI restriction sites at their termini, allowing ligation into a NotI/NcoI digested pET28a(+) derivative for protein expression. […] The codon optimized nucleotide sequences and relevant primer recognition information is shown below:
The PCR products were then digested with XhoI and EcoRI and ligated into similarly digested plasmid pAH63-pstS(BlaP). Plasmid pAH63-pstS(BlaP) is a derivative of plasmid pAH63 (J Bacteriol: 183(21): 6384-6393) made by cloning the TEM-1 (bla) promoter and signal peptide encoding region from plasmid pBAD (J Bacteriol. 1995 July 177(14):4121-30) into plasmid pAH63. This fragment was PCR amplified from pBAD using primer pair E192 (ttca[…]) (SEQ ID NO:13) and E194 ([…]) (SEQ ID NO:14), digested with PstI and BamHI and inserted into similarly digested plasmid pAH63. Therefore, expression of β-lactamases from pAH63-pstS(BlaP) based constructs is constitutive and the signal sequence is provided to direct these proteins to the periplasm. Plasmid pAH63 based vectors are used for insertion into the genome in single copy, however, to provide higher expression levels to allow more sensitive detection of the susceptibility of compounds to the β-lactamases, the expression inserts contained in these vectors were moved to the replicative multicopy vector pBAD-Kan (J Bacteriol. 1995 July 177(14):4121-30). To accomplish this, the inserts encompassing the β-lactamase genes, with the associated TEM promoter and signal sequences, were PCR amplified from their corresponding vectors using primer E269 (ccg[…]) (SEQ ID NO:15) and E202 (aatc[…]) (SEQ ID NO:16) for the KPC2 construct and E204 (aatc[…]) (SEQ ID NO:17) for the SHV12 construct. These fragments were then digested with XbaI and EcoRI, and each was inserted into pBAD18-kan that had been digested with the same enzymes to generate a pair of multicopy vectors expressing KPC2 and SHV12 respectively. These vectors were transformed into BW25113 pspB to generate strains NB27273-CDY0033 (expressing KPC2) and NB27273-CDY0030 (expressing SHV12). The pBAD18-kan vector also contains the TEM promoter region and signal sequence, (but lacks any intact β-lactamase genes) and was transformed into BW25113 pspB using standard protocols to generate the control strain NB27273-CDY0026. Expression of the β-lactamases was confirmed by verifying decreased susceptibility to example test antibiotics that are known substrates of KPC2 or SHV12. Susceptibility Testing
Minimal Inhibitory Concentrations (MICs) were determined by the broth microdilution method in accordance with Clinical and Laboratories Institute (CLSI) guidelines. In brief, fresh overnight bacterial cultures were suspended in sterile saline, and adjusted to a 0.5 McFarland turbidity standard. Bacterial suspensions were then diluted in cation adjusted Mueller-Hinton Broth (MHB II; BBL) to yield a final inoculum of approximately 5×10^5 colony-forming units (CFU)/mL. […]

The MIC is the lowest concentration found to suppress growth. `Nc1nc(/C(=N/OC2(C(=O)O)CCC2)C(=O)N[C@@H]2C(=O)N(S(=O)(=O)O)[C@@H]2Cn2cncn2)cs1` [Example 32, 1-(((Z)-(2-(((2R,3S)-2-((1H-1,2,4-triazol-1-yl)methyl)-4-oxo-1-sulfoazetidin-3-yl)amino)-1-(2-aminothiazol-4-yl)-2-oxoethylidene)amino)oxy)cyclobutanecarboxylic acid]: the MIC was determined as 2 µg/mL (≈ 3.89 µM) with E. coli strain 25922 and 1 µg/mL (≈ 1.94 µM) in the experiment with E. coli containing KPC-2.
As to `CC(C)(O/N=C(\C(=O)N[C@@H]1C(=O)N(S(=O)(=O)O)[C@@H]1Cn1ncc(CC#N)n1)c1csc(N)n1)C(=O)O` [Example 33, 2-(((Z)-(1-(2-aminothiazol-4-yl)-2-(((2R,3S)-2-((4-(cyanomethyl)-2H-1,2,3-triazol-2-yl)methyl)-4-oxo-1-sulfoazetidin-3-yl)amino)-2-oxoethylidene)amino)oxy)-2-methylpropanoic acid], the minimal inhibitory concentration (MIC) in the experiment with E. coli strain 25922 and in the experiment on E. coli containing KPC-2 was 2 µg/mL (≈ 3.69 µM) in each case.
Regarding `CC(C)(O/N=C(\C(=O)N[C@@H]1C(=O)N(S(=O)(=O)O)[C@@H]1Cn1ccc(N)n1)c1csc(N)n1)C(=O)O` [Example 34, 2-(((Z)-(2-(((2R,3S)-2-((3-amino-1H-pyrazol-1-yl)methyl)-4-oxo-1-sulfoazetidin-3-yl)amino)-1-(2-aminothiazol-4-yl)-2-oxoethylidene)amino)oxy)-2-methylpropanoic acid], the MIC in the experiment on E. coli strain 25922 and with E. coli containing KPC-2 was above 64 µg/mL in each case.
Turning to `CC(C)(O/N=C(\C(=O)N[C@@H]1C(=O)N(S(=O)(=O)O)[C@@H]1Cn1cc(N)cn1)c1csc(N)n1)C(=O)O` [Example 35, 2-(((Z)-(2-(((2R,3S)-2-((4-amino-1H-pyrazol-1-yl)methyl)-4-oxo-1-sulfoazetidin-3-yl)amino)-1-(2-aminothiazol-4-yl)-2-oxoethylidene)amino)oxy)-2-methylpropanoic acid], the MIC turned out to be 2 µg/mL (≈ 3.87 µM) in the experiment on E. coli strain 25922 and 1 µg/mL (≈ 1.94 µM) in the experiment with E. coli containing KPC-2.
For `CC(C)(O/N=C(\C(=O)N[C@@H]1C(=O)N(S(=O)(=O)O)[C@@H]1Cn1ncc(C[N+]2(C)CCCC2)n1)c1csc(N)n1)C(=O)O` [Example 36, (2R,3S)-3-((Z)-2-(2-aminothiazol-4-yl)-2-(((2-carboxypropan-2-yl)oxy)imino)acetamido)-2-((4-((1-methylpyrrolidin-1-ium-1-yl)methyl)-2H-1,2,3-triazol-2-yl)methyl)-4-oxoazetidine-1-sulfonate], in that order: 2 µg/mL and 1 µg/mL.
For `CC(C)(O/N=C(\C(=O)N[C@@H]1C(=O)N(S(=O)(=O)O)[C@@H]1Cn1ncc(COC(N)=O)n1)c1csc(N)n1)C(=O)O` [Example 37, 2-(((Z)-(1-(2-aminothiazol-4-yl)-2-(((2R,3S)-2-((4-((carbamoyloxy)methyl)-2H-1,2,3-triazol-2-yl)methyl)-4-oxo-1-sulfoazetidin-3-yl)amino)-2-oxoethylidene)amino)oxy)-2-methylpropanoic acid], in that order: 2 µg/mL (≈ 3.47 µM) and 2 µg/mL (≈ 3.47 µM).
The corresponding values for `CC(C)(O/N=C(\C(=O)N[C@@H]1C(=O)N(S(=O)(=O)O)[C@@H]1Cn1ncc(COS(=O)(=O)O)n1)c1csc(N)n1)C(=O)O` [Example 38, 2-(((Z)-(1-(2-aminothiazol-4-yl)-2-oxo-2-(((3S,4R)-2-oxo-1-sulfo-4-((4-((sulfooxy)methyl)-2H-1,2,3-triazol-2-yl)methyl)azetidin-3-yl)amino)ethylidene)amino)oxy)-2-methylpropanoic acid] are 8 µg/mL (≈ 13.1 µM) and 4 µg/mL (≈ 6.53 µM).
As to `CC(C)(O/N=C(\C(=O)N[C@@H]1C(=O)N(S(=O)(=O)O)[C@@H]1CN1CCN=C1N)c1csc(N)n1)C(=O)O` [Example 39, 2-(((Z)-(2-(((2R,3S)-2-((2-amino-4,5-dihydro-1H-imidazol-1-yl)methyl)-4-oxo-1-sulfoazetidin-3-yl)amino)-1-(2-aminothiazol-4-yl)-2-oxoethylidene)amino)oxy)-2-methylpropanoic acid], the results for the minimum inhibitory concentration (MIC) in the experiment on E. coli strain 25922 and in the experiment on E. coli containing KPC-2 were 64 µg/mL (≈ 123 µM) and above 64 µg/mL, respectively.
As to `CC(C)(O/N=C(\C(=O)N[C@@H]1C(=O)N(S(=O)(=O)O)[C@@H]1CN1CCN/C1=N\C#N)c1csc(N)n1)C(=O)O` [Example 40, 2-(((Z)-(1-(2-aminothiazol-4-yl)-2-(((2R,3S)-2-(((E)-2-(cyanoimino)imidazolidin-1-yl)methyl)-4-oxo-1-sulfoazetidin-3-yl)amino)-2-oxoethylidene)amino)oxy)-2-methylpropanoic acid], the MIC in the experiment on E. coli strain 25922 and in the experiment on E. coli containing KPC-2 was 2 µg/mL (≈ 3.68 µM) throughout.
Regarding `CC(C)(O/N=C(\C(=O)N[C@@H]1C(=O)N(S(=O)(=O)O)[C@@H]1Cn1cc(CCN)nn1)c1csc(N)n1)C(=O)O` [Example 41, 2-(((Z)-(2-(((2R,3S)-2-((4-(2-aminoethyl)-1H-1,2,3-triazol-1-yl)methyl)-4-oxo-1-sulfoazetidin-3-yl)amino)-1-(2-aminothiazol-4-yl)-2-oxoethylidene)amino)oxy)-2-methylpropanoic acid], the MIC with E. coli strain 25922 is 1 µg/mL (≈ 1.83 µM); in the experiment on E. coli containing KPC-2 it was 2 µg/mL (≈ 3.67 µM).
For `CC(C)(O/N=C(\C(=O)N[C@@H]1C(=O)N(S(=O)(=O)O)[C@@H]1Cn1cc(CCN2CCNCC2)nn1)c1csc(N)n1)C(=O)O` [Example 42, 2-(((Z)-(1-(2-aminothiazol-4-yl)-2-oxo-2-(((3S,4R)-2-oxo-4-((4-(2-(piperazin-1-yl)ethyl)-1H-1,2,3-triazol-1-yl)methyl)-1-sulfoazetidin-3-yl)amino)ethylidene)amino)oxy)-2-methylpropanoic acid], in that order: 1.4 µg/mL (≈ 2.28 µM) and 2 µg/mL (≈ 3.25 µM).
On to `CC(C)(O/N=C(\C(=O)N[C@@H]1C(=O)N(S(=O)(=O)O)[C@@H]1Cn1cc(CNC(=O)C[N+](C)(C)C)nn1)c1csc(N)n1)C(=O)O` [Example 43, (3S,4R)-3-((Z)-2-(2-aminothiazol-4-yl)-2-(((2-carboxypropan-2-yl)oxy)imino)acetamido)-2-oxo-4-((4-((2-(trimethylammonio)acetamido)methyl)-1H-1,2,3-triazol-1-yl)methyl)azetidine-1-sulfonate], for which the minimum inhibitory concentration (MIC) in the experiment with E. coli strain 25922 and with E. coli containing KPC-2 was 2 µg/mL throughout.
In the case of `CC(C)(O/N=C(\C(=O)N[C@@H]1C(=O)N(S(=O)(=O)O)[C@@H]1Cn1cc(CN)nn1)c1csc(N)n1)C(=O)O` [Example 44, 2-(((Z)-(2-(((2R,3S)-2-((4-(aminomethyl)-1H-1,2,3-triazol-1-yl)methyl)-4-oxo-1-sulfoazetidin-3-yl)amino)-1-(2-aminothiazol-4-yl)-2-oxoethylidene)amino)oxy)-2-methylpropanoic acid], the minimal inhibitory concentration (MIC) with E. coli strain 25922 worked out at 0.67 µg/mL (≈ 1.26 µM); in the experiment on E. coli containing KPC-2 it was 1.5 µg/mL (≈ 2.82 µM).
